Settings: Fluid (supercritical or subcritical phases), Buoyancy - hydrostatic balance with magnetic suspension - one sinker

C [methane]
Settings	mass density [kg/m3]
298.14 K, 20012 kPa	157.172
298.14 K, 29958 kPa	212.508
298.14 K, 35056 kPa	232.422
298.14 K, 49959 kPa	273.189
298.14 K, 99874 kPa	342.269
298.14 K, 124934 kPa	363.139
298.14 K, 150062 kPa	380.039
298.14 K, 159617 kPa	385.731
298.14 K, 170054 kPa	391.531
298.14 K, 185333 kPa	399.489
298.14 K, 186931 kPa	400.257
298.14 K, 188059 kPa	400.837
298.15 K, 10010 kPa	76.08
298.15 K, 79980 kPa	321.098
298.16 K, 1012 kPa	6.665
298.16 K, 66961 kPa	303.605
298.19 K, 5009 kPa	35.316
298.25 K, 14994 kPa	118.506
305.23 K, 9993 kPa	72.932
305.23 K, 49968 kPa	267.232
305.23 K, 60012 kPa	287.019
305.23 K, 79855 kPa	316.163
305.23 K, 99904 kPa	337.939
305.23 K, 124930 kPa	359.159
305.23 K, 149862 kPa	376.248
305.24 K, 1002 kPa	6.404
305.24 K, 2000 kPa	13.031
305.24 K, 5001 kPa	34.173
305.24 K, 6897 kPa	48.435
305.24 K, 15006 kPa	113.44
305.24 K, 20696 kPa	155.024
305.24 K, 29976 kPa	205.443
305.24 K, 34563 kPa	223.779
305.24 K, 69988 kPa	302.917
338.04 K, 6905 kPa	42.093
338.05 K, 5000 kPa	29.983
338.05 K, 34473 kPa	195.446
338.06 K, 70001 kPa	280.639
338.07 K, 124895 kPa	341.685
338.07 K, 149542 kPa	359.787
338.08 K, 1004 kPa	5.782
338.08 K, 2004 kPa	11.667
338.08 K, 15026 kPa	95.246
338.08 K, 20687 kPa	130.132
338.08 K, 30005 kPa	177.38
338.08 K, 50031 kPa	241.969
338.08 K, 59971 kPa	263.229
338.09 K, 164905 kPa	369.665
338.1 K, 9969 kPa	62.054
338.1 K, 80310 kPa	295.61
338.11 K, 99908 kPa	318.744
338.12 K, 179829 kPa	378.164
399.94 K, 89964 kPa	274.637
399.97 K, 59973 kPa	225.951
399.98 K, 1002 kPa	4.86
399.98 K, 30014 kPa	141.158
399.99 K, 15027 kPa	74.789
400 K, 50037 kPa	203.469
400 K, 79920 kPa	260.652
400.01 K, 2001 kPa	9.744
400.01 K, 6915 kPa	34.195
400.01 K, 10002 kPa	49.746
400.02 K, 20675 kPa	101.642
400.02 K, 124882 kPa	312.062
400.02 K, 149627 kPa	332.136
400.03 K, 13795 kPa	68.723
400.04 K, 34510 kPa	157.64
400.04 K, 69978 kPa	244.725
400.07 K, 5005 kPa	24.61
400.09 K, 99984 kPa	286.8
450 K, 2009 kPa	8.61
450.01 K, 20697 kPa	87.478
450.01 K, 99932 kPa	264.608
450.02 K, 89981 kPa	251.923
450.02 K, 119918 kPa	286.376
450.03 K, 59975 kPa	202.137
450.03 K, 139476 kPa	304.187
450.05 K, 30002 kPa	121.791
450.06 K, 50036 kPa	179.955
450.06 K, 69966 kPa	221.073
450.08 K, 80008 kPa	237.571
450.09 K, 6886 kPa	29.741
450.12 K, 34492 kPa	136.647
